These are literature values, as cited in patent US20060188579A1, “Novel process” (priority 2003, published 2006).

The conditions of the series: particles produced by the method of WO00/38811; lowest value ('down to').

For `Nc1cnc(-c2cc(Cl)cc(Cl)c2Cl)c(N)n1` [2,6-diamino-3-(2,3,5-trichlorophenyl)pyrazine], the “dv(0.5)” value is on record as 1.64 μm.
